Experimental data published in US8748415B2 (priority 2011, dated 2014).

Test system: recombinant NL4-3 virus (Renilla luciferase in nef, Gag P373S)
Test: HIV cell culture assay (luciferase activity in MT-2 cells infected with NLRluc recombinant virus)
Type: cell-based
Conditions: NL43, MT-2 cells infected 4-5 days with NLRluc recombinant virus
Summary of the method: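 Activity was read as luciferase output (Dual Luciferase reagents premixed with lysis solution) after 4–5 days of infection in serially diluted inhibitor. Host cells were MT-2 in 10% FBS RPMI. The reporter virus came from transfected 293T cells and was titered on MT-2.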

SMILES | EC50 (class symbol) | EC50 (numeric value)
C=C(C)[C@@H]1CC[C@]2(CNCCNCCO)CC[C@]3(C)[C@H](CC[C@@H]4[C@@]5(C)CC=C(c6ccc(C(=O)O)cc6)C(C)(C)[C@@H]5CC[C@]43C)[C@@H]12 [Example 62, 4-((1R,3aS,5aR,5bR,7aR,11aS,11bR,13aR,13bR)-3a-((2-(2-hydroxyethylamino)ethylamino)methyl)-5a,5b,8,8,11a-pentamethyl-1-(prop-1-en-2-yl)-2,3,3a,4,5,5a,5b,6,7,7a,8,11,11a,11b,12,13,13a,13b-octadecahydro-1H-cyclopenta[a]chrysen-9-yl)benzoic acid] | < 100 nM | –
C=C(C)[C@@H]1CC[C@]2(CNCCN3CCCC3=O)CC[C@]3(C)[C@H](CC[C@@H]4[C@@]5(C)CC=C(c6ccc(C(=O)O)c(F)c6)C(C)(C)[C@@H]5CC[C@]43C)[C@@H]12 [Example 91, 2-fluoro-4-((1R,3aS,5aR,5bR,7aR,11aS,11bR,13aR,13bR)-5a,5b,8,8,11a-pentamethyl-3a-((2-(2-oxopyrrolidin-1-yl)ethylamino)methyl)-1-(prop-1-en-2-yl)-2,3,3a,4,5,5a,5b,6,7,7a,8,11,11a,11b,12,13,13a,13b-octadecahydro-1H-cyclopenta[a]chrysen-9-yl)benzoic acid] | < 100 nM | –
C=C(C)[C@@H]1CC[C@]2(CN(C)CCS(=O)(=O)N3CCN(C)CC3)CC[C@]3(C)[C@H](CC[C@@H]4[C@@]5(C)CC=C(c6ccc(C(=O)O)cc6)C(C)(C)[C@@H]5CC[C@]43C)[C@@H]12 [Example 44, 4-((1R,3aS,5aR,5bR,7aR,11aS,11bR,13aR,13bR)-5a,5b,8,8,11a-pentamethyl-3a-((methyl(2-(4-methylpiperazin-1-ylsulfonyl)ethyl)amino)methyl)-1-(prop-1-en-2-yl)-2,3,3a,4,5,5a,5b,6,7,7a,8,11,11a,11b,12,13,13a,13b-octadecahydro-1H-cyclopenta[a]chrysen-9-yl)benzoic acid] | – | 20 nM
C=C(C)[C@@H]1CC[C@]2(CNC(=O)NCCN3CCS(=O)(=O)CC3)CC[C@]3(C)[C@H](CC[C@@H]4[C@@]5(C)CC=C(c6ccc(C(=O)O)cc6)C(C)(C)[C@@H]5CC[C@]43C)[C@@H]12 [Example 161, 4-((1R,3aS,5aR,5bR,7aR,11aS,11bR,13aR,13bR)-3a-((((2-(1,1-dioxido-4-thiomorpholinyl)ethyl)carbamoyl)amino)methyl)-1-isopropenyl-5a,5b,8,8,11a-pentamethyl-2,3,3a,4,5,5a,5b,6,7,7a,8,11,11a,11b,12,13,13a,13b-octadecahydro-1H-cyclopenta[a]chrysen-9-yl)benzoic acid] | < 100 nM | –
C=C(C)[C@@H]1CC[C@]2(CNC(C)C)CC[C@]3(C)[C@H](CC[C@@H]4[C@@]5(C)CC=C(c6ccc(C(=O)O)cc6)C(C)(C)[C@@H]5CC[C@]43C)[C@@H]12 [Example 175, 4-((1R,3aS,5aR,5bR,7aR,11aS,11bR,13aR,13bR)-3a-((isopropylamino)methyl)-5a,5b,8,8,11a-pentamethyl-1-(prop-1-en-2-yl)-2,3,3a,4,5,5a,5b,6,7,7a,8,11,11a,11b,12,13,13a,13b-octadecahydro-1H-cyclopenta[a]chrysen-9-yl)benzoic acid] | < 100 nM | –
C=C(C)[C@@H]1CC[C@]2(CNCCC(=O)N3CCC(C(=O)OCC)CC3)CC[C@]3(C)[C@H](CC[C@@H]4[C@@]5(C)CC=C(c6ccc(C(=O)O)cc6)C(C)(C)[C@@H]5CC[C@]43C)[C@@H]12 [Example 98, 4-((1R,3aS,5aR,5bR,7aR,11aS,11bR,13aR,13bR)-3a-((3-(4-(ethoxycarbonyl)piperidin-1-yl)-3-oxopropylamino)methyl)-5a,5b,8,8,11a-pentamethyl-1-(prop-1-en-2-yl)-2,3,3a,4,5,5a,5b,6,7,7a,8,11,11a,11b,12,13,13a,13b-octadecahydro-1H-cyclopenta[a]chrysen-9-yl)benzoic acid] | < 100 nM | –
C=C(C)[C@@H]1CC[C@]2(CNCCCN3CCS(=O)(=O)CC3)CC[C@]3(C)[C@H](CC[C@@H]4[C@@]5(C)CC=C(c6ccc(C(=O)O)c(F)c6)C(C)(C)[C@@H]5CC[C@]43C)[C@@H]12 [Example 93, 4-((1R,3aS,5aR,5bR,7aR,11aS,11bR,13aR,13bR)-3a-(((3-(1,1-dioxido-4-thiomorpholinyl)propyl)amino)methyl)-1-isopropenyl-5a,5b,8,8,11a-pentamethyl-2,3,3a,4,5,5a,5b,6,7,7a,8,11,11a,11b,12,13,13a,13b-octadecahydro-1H-cyclopenta[a]chrysen-9-yl)-2-fluorobenzoic acid] | < 100 nM | –
C=C(C)[C@@H]1CC[C@]2(CNC(=O)[C@H]3CCCN3C)CC[C@]3(C)[C@H](CC[C@@H]4[C@@]5(C)CC=C(c6ccc(C(=O)O)cc6)C(C)(C)[C@@H]5CC[C@]43C)[C@@H]12 [Example 151, 4-((1R,3aS,5aR,5bR,7aR,11aS,11bR,13aR,13bR)-5a,5b,8,8,11a-pentamethyl-3a-(((R)-1-methylpyrrolidine-2-carboxamido)methyl)-1-(prop-1-en-2-yl)-2,3,3a,4,5,5a,5b,6,7,7a,8,11,11a,11b,12,13,13a,13b-octadecahydro-1H-cyclopenta[a]chrysen-9-yl)benzoic acid] | < 100 nM | –
C=C(C)[C@@H]1CC[C@]2(CNCCN(C)C)CC[C@]3(C)[C@H](CC[C@@H]4[C@@]5(C)CC=C(c6ccc(C(=O)O)cc6)C(C)(C)[C@@H]5CC[C@]43C)[C@@H]12 [Example 1, 4-((1R,3aS,5aR,5bR,7aR,11aS,11bR,13aR,13bR)-3a-((2-(dimethylamino)ethylamino)methyl)-5a,5b,8,8,11a-pentamethyl-1-(prop-1-en-2-yl)-2,3,3a,4,5,5a,5b,6,7,7a,8,11,11a,11b,12,13,13a,13b-octadecahydro-1H-cyclopenta[a]chrysen-9-yl)benzoic acid] | < 100 nM | –
C=C(C)[C@@H]1CC[C@]2(CNCCCn3ccnc3)CC[C@]3(C)[C@H](CC[C@@H]4[C@@]5(C)CC=C(c6ccc(C(=O)O)cc6)C(C)(C)[C@@H]5CC[C@]43C)[C@@H]12 [Example 55, 4-((1R,3aS,5aR,5bR,7aR,11aS,11bR,13aR,13bR)-3a-((3-(1H-imidazol-1-yl)propylamino)methyl)-5a,5b,8,8,11a-pentamethyl-1-(prop-1-en-2-yl)-2,3,3a,4,5,5a,5b,6,7,7a,8,11,11a,11b,12,13,13a,13b-octadecahydro-1H-cyclopenta[a]chrysen-9-yl)benzoic acid] | < 100 nM | –
C=C(C)[C@@H]1CC[C@]2(CNC3(CN(CC)CC)CC3)CC[C@]3(C)[C@H](CC[C@@H]4[C@@]5(C)CC=C(c6ccc(C(=O)O)cc6)C(C)(C)[C@@H]5CC[C@]43C)[C@@H]12 [Example 52, 4-((1R,3aS,5aR,5bR,7aR,11aS,11bR,13aR,13bR)-3a-((1-((diethylamino)methyl)cyclopropylamino)methyl)-5a,5b,8,8,11a-pentamethyl-1-(prop-1-en-2-yl)-2,3,3a,4,5,5a,5b,6,7,7a,8,11,11a,11b,12,13,13a,13b-octadecahydro-1H-cyclopenta[a]chrysen-9-yl)benzoic acid] | < 100 nM | –
C=C(C)[C@@H]1CC[C@]2(CNC(=O)CN3CCCCS3(=O)=O)CC[C@]3(C)[C@H](CC[C@@H]4[C@@]5(C)CC=C(c6ccc(C(=O)O)cc6)C(C)(C)[C@@H]5CC[C@]43C)[C@@H]12 [Example 147, 4-((1R,3aS,5aR,5bR,7aR,11aS,11bR,13aR,13bR)-3a-((((1,1-dioxido-1,2-thiazinan-2-yl)acetyl)amino)methyl)-1-isopropenyl-5a,5b,8,8,11a-pentamethyl-2,3,3a,4,5,5a,5b,6,7,7a,8,11,11a,11b,12,13,13a,13b-octadecahydro-1H-cyclopenta[a]chrysen-9-yl)benzoic acid] | < 100 nM | –
